Consider 33 compounds from patent US7595401B2, “Therapeutic compounds and their use in cancer” (Myriad Pharmaceuticals, Inc., priority 2006, dated 2009).

The test system of one assay is purified human Hsp90. In words: Binding Assay: fluorescence polarization with BODIPY-labeled geldanamycin. Conditions: 5 μM compound, BODIPY-GM 10 nM, Hsp90 30 nM. The procedure, abridged:
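Compounds in 2% DMSO final compete with 10 nM BODIPY-GM for 30 nM purified human Hsp90, incubated overnight at room temperature in pH 7.3 HEPES buffer containing Na2MoO4 and DTT. Polarization (mP, ex/em 485/530) normalized to DMSO gives percent inhibition; autofluorescence-confounded data excluded.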
Turning to `CC(C)N1CCC(CCn2c(Sc3cc4c(cc3Br)OCO4)nc3ncnc(N)c32)CC1` [Example 583, 8-[(6-Bromo-1,3-benzodioxol-5-yl)thio]-7-[2-(1-isopropylpiperidin-4-yl)ethyl]-7 H-purin-6-amine], the “% Inhibition at 5 μM Compound Concentration” value (“% Inhibition” below) is on record as 55.00%.
For the compound `COc1ccc(CN2CCC(CCn3cnc(N)c4nc(Sc5cc6c(cc5Br)OCO6)nc3-4)CC2)cc1` [Example 595, 8-[(6-Bromo-1,3-benzodioxol-5-yl)thio]-3-{2-[1-(4-methoxybenzyl)piperidin-4-yl]ethyl}-3 H-purin-6-amine], the “% Inhibition” value amounted to 43.00%.
In the case of `Nc1ncn(CCC2CCN(C=O)CC2)c2nc(Sc3cc4c(cc3Br)OCO4)nc1-2` [Example 602, 4-(2-{6-Amino-8-[(6-bromo-1,3-benzodioxol-5-yl)thio]-3 H-purin-3-yl}ethyl)piperidine-1-carbaldehyde], the “% Inhibition” value is 31.00%.
As to `Nc1ncn(CC[C@H]2CCCN(C=O)C2)c2nc(Sc3cc4c(cc3Br)OCO4)nc1-2` [Example 603, (3R)-3-(2-{6-Amino-8-[(6-bromo-1,3-benzodioxol-5-yl)thio]-3 H-purin-3-yl}ethyl)piperidine-1-carbaldehyde], the “% Inhibition” value was 4.00%.
In the case of `Nc1ncn(CCC2CC3CCC(C2)O3)c2nc(Sc3cc4c(cc3Br)OCO4)nc1-2` (stereo not drawn) [Example 606], the “% Inhibition” value is listed as 49.00%.
Turning to `CC12CCC(CC(CCn3cnc(N)c4nc(Sc5cc6c(cc5Br)OCO6)nc3-4)C1)O2` (stereo not drawn) [Example 608, 8-[(6-Bromo-1,3-benzodioxol-5-yl)thio]-3-{2-[1-methyl-8-oxabicyclo[3.2.1]oct-3-yl]ethyl}-3 H-purin-6-amine], the “% Inhibition” value is 5.00%.
Turning to `CCn1nnnc1N1CCC(CCn2cnc(N)c3nc(Sc4cc5c(cc4Br)OCO5)nc2-3)CC1` [Example 611, 8-[(6-Bromo-1,3-benzodioxol-5-yl)thio]-3-{2-[1-(1-ethyl-1 H-tetrazol-5-yl)piperidin-4-yl]ethyl}-3 H-purin-6-amine], the “% Inhibition” value amounted to 22.00%.
With `CC(C)n1nnnc1N1CCC(CCn2cnc(N)c3nc(Sc4cc5c(cc4Br)OCO5)nc2-3)CC1` [Example 613, 8-[(6-Bromo-1,3-benzodioxol-5-yl)thio]-3-{2-[1-(1-isopropyl-1 H-tetrazol-5-yl)piperidin-4-yl]ethyl}-3 H-purin-6-amine], the “% Inhibition” value turned out to be 15.00%.
`CC(C)(C)n1nnnc1N1CCC(CCn2cnc(N)c3nc(Sc4cc5c(cc4Br)OCO5)nc2-3)CC1` [Example 615, 8-[(6-Bromo-1,3-benzodioxol-5-yl)thio]-3-{2-[1-(1-tert-butyl-1 H-tetrazol-5-yl)piperidin-4-yl]ethyl}-3 H-purin-6-amine]: the “% Inhibition” value was found to be 13.00%.
Turning to `N=C(N)N1CCC(CCn2cnc(N)c3nc(Sc4cc5c(cc4Br)OCO5)nc2-3)CC1` [Example 617, 4-(2-{6-Amino-8-[(6-bromo-1,3-benzodioxol-5-yl)thio]-3 H-purin-3-yl}ethyl)piperidine-1-carboximidamide], the “% Inhibition” value is 83.00%.

The assay is the same for the next values; noted with them: BODIPY-GM 10 nM, Hsp90 30 nM.
`Nc1ncnc2c1nc(Sc1cc3c(cc1Br)OCO3)n2CCC1CCCN(CC(F)(F)F)C1` (stereo not drawn) [Example 577, 8-[(6-Bromo-1,3-benzodioxol-5-yl)thio]-9-{2-[1-(2,2,2-trifluoroethyl)piperidin-3-yl]ethyl}-9 H-purin-6-amine]: the IC50 worked out at 140 nM.
`Cc1cc(=O)n(CCn2c(Sc3cc4c(cc3Br)OCO4)nc3c(N)ncnc32)c(=O)[nH]1` [Example 578, 3-(2-{6-amino-8-[(6-bromo-1,3-benzodioxol-5-yl)thio]-9 H-purin-9-yl}ethyl)-6-methylpyrimidine-2,4 (1 H,3 H)-dione] registered an IC50 of 550 nM.
`Nc1ncnc2c1nc(Sc1cc3c(cc1Br)OCO3)n2CCC1CCN(Cc2ccc(F)cc2)CC1` [Example 579, 8-[(6-Bromo-1,3-benzodioxol-5-yl)thio]-9-{2-[1-(4-fluorobenzyl)piperidin-4-yl]ethyl}-9 H-purin-6-amine] returned an IC50 of 310 nM.
The compound `Nc1ncnc2c1nc(Sc1cc3c(cc1Br)OCO3)n2CCC1CCN(CC2CCCCC2)CC1` [Example 581, 8-[(6-Bromo-1,3-benzodioxol-5-yl)thio]-9-{2-[1-(cyclohexylmethyl)piperidin-4-yl]ethyl}-9 H-purin-6-amine] showed an IC50 of 240 nM.
Regarding `CC(C)N1CCC(CCn2c(Sc3cc4c(cc3Br)OCO4)nc3c(N)ncnc32)CC1` [Example 582, 8-[(6-Bromo-1,3-benzodioxol-5-yl)thio]-9-[2-(1-isopropylpiperidin-4-yl)ethyl]-9 H-purin-6-amine], the IC50 worked out at 900 nM. This IC50 lies about 3.8-fold higher than the previous one.
In the case of `Nc1ncnc2c1nc(Sc1cc3c(cc1Br)OCO3)n2CCN1CCCC1=O` [Example 584, 1-(2-{6-Amino-8-[(6-bromo-1,3-benzodioxol-5-yl)thio]-9 H-purin-9-yl}ethyl)pyrrolidin-2-one], the IC50 is 1400 nM.
On to `Nc1ncnc2c1nc(Sc1cc3c(cc1Br)OCO3)n2CCC1CCN(CC(F)(F)F)CC1` [Example 585, 8-[(6-Bromo-1,3-benzodioxol-5-yl)thio]-9-{2-[1-(2,2,2-trifluoroethyl)piperidin-4-yl]ethyl}-9 H-purin-6-amine], for which the IC50 was determined as 600 nM.
On the same count and under the same terms, the result for `Nc1ncnc2c1nc(Sc1cc3c(cc1Br)OCO3)n2CCN1CCOC1=O` [Example 586, 3-(2-{6-Amino-8-[(6-bromo-1,3-benzodioxol-5-yl)thio]-9 H-purin-9-yl}ethyl)-1,3-oxazolidin-2-one] reads 450 nM; that for `Nc1ncnc2c1nc(Sc1cc3c(cc1Br)OCO3)n2CCC1CCCCN1CC1CCCCC1` (stereo not drawn) [Example 588, 8-[(6-Bromo-1,3-benzodioxol-5-yl)thio]-9-{2-[1-(cyclohexylmethyl)piperidin-2-yl]ethyl}-9 H-purin-6-amine], more than 2000 nM; that for `COc1ccc(CN2CCCCC2CCn2c(Sc3cc4c(cc3Br)OCO4)nc3c(N)ncnc32)cc1` (stereo not drawn) [Example 590, 8-[(6-Bromo-1,3-benzodioxol-5-yl)thio]-9-{2-[1-(4-methoxybenzyl)piperidin-2-yl]ethyl}-9 H-purin-6-amine], 500 nM.
For `Nc1ncnc2c1nc(Sc1cc3c(cc1Br)OCO3)n2CCC1CCCCN1C(=O)OCc1ccccc1` (stereo not drawn) [Example 592, Benzyl 2-(2-{6-amino-8-[(6-bromo-1,3-benzodioxol-5-yl)thio]-9 H-purin-9-yl}ethyl)piperidine-1-carboxylate], the IC50 was more than 5000 nM.
The same measure, in the same setting: the result for `COc1ccc(CN2CCC(CCn3c(Sc4cc5c(cc4Br)OCO5)nc4c(N)ncnc43)CC2)cc1` [Example 594, 8-[(6-Bromo-1,3-benzodioxol-5-yl)thio]-9-{2-[1-(4-methoxybenzyl)piperidin-4-yl]ethyl}-9 H-purin-6-amine] reads 270 nM; that for `Nc1ncnc2c1nc(Sc1cc3c(cc1Br)OCO3)n2CCC1CCN(Cc2ccccc2)CC1` [Example 599, 9-[2-(1-Benzylpiperidin-4-yl)ethyl]-8-[(6-bromo-1,3-benzodioxol-5-yl)thio]-9 H-purin-6-amine], 260 nM.
The same measure, in the same setting: the result for `CC1(C)COC(CCn2c(Sc3cc4c(cc3Br)OCO4)nc3c(N)ncnc32)CN1` (stereo not drawn) [Example 601, 8-[(6-Bromo-1,3-benzodioxol-5-yl)thio]-9-[2-(5,5-dimethylmorpholin-2-yl)ethyl]-9 H-purin-6-amine] reads more than 8000 nM.
On to `Nc1ncnc2c1nc(Sc1cc3c(cc1Br)OCO3)n2CC[C@H]1CCCN(C=O)C1` [Example 604, (3R)-3-(2-{6-Amino-8-[(6-bromo-1,3-benzodioxol-5-yl)thio]-9 H-purin-9-yl}ethyl)piperidine-1-carbaldehyde], for which the IC50 amounted to 190 nM.
On to `Nc1ncnc2c1nc(Sc1cc3c(cc1Br)OCO3)n2CCC1CC2CCC(C1)O2` (stereo not drawn) [Example 605], for which the IC50 amounted to 56 nM. This IC50 lies about 3.4-fold lower than the previous one.
Still for that read-out and setting: the result for `CC12CCC(CC(CCn3c(Sc4cc5c(cc4Br)OCO5)nc4c(N)ncnc43)C1)O2` (stereo not drawn) [Example 607, 8-[(6-Bromo-1,3-benzodioxol-5-yl)thio]-9-{2-[1-methyl-8-oxabicyclo[3.2.1]oct-3-yl]ethyl}-9 H-purin-6-amine] reads 62 nM; that for `Cn1nnnc1N1CCC(CCn2c(Sc3cc4c(cc3Br)OCO4)nc3c(N)ncnc32)CC1` [Example 609, 8-[(6-Bromo-1,3-benzodioxol-5-yl)thio]-9-{2-[1-(1-methyl-1 H-tetrazol-5-yl)piperidin-4-yl]ethyl}-9 H-purin-6-amine], 45 nM.
For the compound `CCn1nnnc1N1CCC(CCn2c(Sc3cc4c(cc3Br)OCO4)nc3c(N)ncnc32)CC1` [Example 610, 8-[(6-Bromo-1,3-benzodioxol-5-yl)thio]-9-{2-[1-(1-ethyl-1 H-tetrazol-5-yl)piperidin-4-yl]ethyl}-9 H-purin-6-amine], the IC50 was 88 nM.
The compound `CC(C)n1nnnc1N1CCC(CCn2c(Sc3cc4c(cc3Br)OCO4)nc3c(N)ncnc32)CC1` [Example 612, 8-[(6-Bromo-1,3-benzodioxol-5-yl)thio]-9-{2-[1-(1-isopropyl-1 H-tetrazol-5-yl)piperidin-4-yl]ethyl}-9 H-purin-6-amine] yielded an IC50 of 230 nM. Against the preceding compound, the IC50 is about 2.6-fold higher.
The compound `CC(C)(C)n1nnnc1N1CCC(CCn2c(Sc3cc4c(cc3Br)OCO4)nc3c(N)ncnc32)CC1` [Example 614, 8-[(6-Bromo-1,3-benzodioxol-5-yl)thio]-9-{2-[1-(1-tert-butyl-1 H-tetrazol-5-yl)piperidin-4-yl]ethyl}-9 H-purin-6-amine] returned an IC50 of 1800 nM.
With `N=C(N)N1CCC(CCn2c(Sc3cc4c(cc3Br)OCO4)nc3c(N)ncnc32)CC1` [Example 616, 4-(2-{6-Amino-8-[(6-bromo-1,3-benzodioxol-5-yl)thio]-9 H-purin-9-yl}ethyl)piperidine-1-carboximidamide], the half-maximal inhibitory concentration (IC50) worked out at 90 nM.
`CCCNC(=N)N1CCC(CCn2c(Sc3cc4c(cc3Br)OCO4)nc3c(N)ncnc32)CC1` [Example 618, 4-(2-{6-Amino-8-[(6-bromo-1,3-benzodioxol-5-yl)thio]-9 H-purin-9-yl}ethyl)-N-propylpiperidine-1-carboximidamide] had an IC50 of 41 nM.
